#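 Dose response: 5 concentrations. Exposure: 48 h. Format: 96-well plates. Endpoint: linear interpolation; highest concentration if not reached. The concentration for full growth arrest is given as TGI.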
# How the values were obtained:
# Experiment in all cases: growth of human tumour cells (NCI), 48 h
# HL-60(TB) leukemia = tested on: HL-60(TB) leukemia
# UACC-62 melanoma = tested on: UACC-62 melanoma
# OVCAR-3 ovarian = tested on: OVCAR-3 ovarian
# NCI/ADR-RES ovarian = tested on: NCI/ADR-RES ovarian
# SK-OV-3 ovarian = tested on: SK-OV-3 ovarian
# SF-268 CNS = tested on: SF-268 CNS
# NCI-H522 lung = tested on: NCI-H522 lung
# UACC-257 melanoma = tested on: UACC-257 melanoma
# SK-MEL-28 melanoma = tested on: SK-MEL-28 melanoma
# HOP-62 NSCLC = tested on: HOP-62 NSCLC
# HT29 colon = tested on: HT29 colon
# A498 renal = tested on: A498 renal
# T-47D breast = tested on: T-47D breast
# M14 melanoma = tested on: M14 melanoma
# NCI-H23 lung = tested on: NCI-H23 lung
# UO-31 renal = tested on: UO-31 renal
# IGROV1 ovarian = tested on: IGROV1 ovarian
# LOX IMVI melanoma = tested on: LOX IMVI melanoma
# 786-0 renal = tested on: 786-0 renal
# OVCAR-4 ovarian = tested on: OVCAR-4 ovarian
# SW-620 colon = tested on: SW-620 colon
# SF-539 CNS = tested on: SF-539 CNS
# CAKI-1 renal = tested on: CAKI-1 renal
# SN12C renal = tested on: SN12C renal
# U251 CNS = tested on: U251 CNS
# HS 578T breast = tested on: HS 578T breast
# HCC-2998 colon = tested on: HCC-2998 colon
# ACHN renal = tested on: ACHN renal
# HCT-15 colon = tested on: HCT-15 colon
# SK-MEL-5 melanoma = tested on: SK-MEL-5 melanoma
# BT-549 breast = tested on: BT-549 breast
# MCF7 breast = tested on: MCF7 breast
# MOLT-4 leukemia = tested on: MOLT-4 leukemia
# HOP-92 NSCLC = tested on: HOP-92 NSCLC
# SR leukemia = tested on: SR leukemia
# PC-3 prostate = tested on: PC-3 prostate
# EKVX NSCLC = tested on: EKVX NSCLC
# MDA-MB-435 = tested on: MDA-MB-435
# COLO 205 colon = tested on: COLO 205 colon
# NCI-H226 lung = tested on: NCI-H226 lung
# SNB-19 CNS = tested on: SNB-19 CNS
# CCRF-CEM leukemia = tested on: CCRF-CEM leukemia
# TK-10 renal = tested on: TK-10 renal
# KM12 colon = tested on: KM12 colon
# MDA-MB-231 breast = tested on: MDA-MB-231 breast
# A549 NSCLC = tested on: A549 NSCLC
# K-562 leukemia = tested on: K-562 leukemia
# SF-295 CNS = tested on: SF-295 CNS
# SNB-75 CNS = tested on: SNB-75 CNS
# NCI-H460 lung = tested on: NCI-H460 lung
# OVCAR-5 ovarian = tested on: OVCAR-5 ovarian
# OVCAR-8 ovarian = tested on: OVCAR-8 ovarian
# HCT-116 colon = tested on: HCT-116 colon
# MALME-3M melanoma = tested on: MALME-3M melanoma
# RPMI-8226 leukemia = tested on: RPMI-8226 leukemia
# RXF 393 renal = tested on: RXF 393 renal
# DU-145 prostate = tested on: DU-145 prostate
# MDA-N = tested on: MDA-N
# SK-MEL-2 melanoma = tested on: SK-MEL-2 melanoma
smiles,measurement,setting,value
Oc1cccc2ccc(Br)nc12,TGI,HL-60(TB) leukemia,> 100 µM
same,TGI,UACC-62 melanoma,> 100 µM
same,TGI,OVCAR-3 ovarian,> 100 µM
same,TGI,NCI/ADR-RES ovarian,> 100 µM
same,TGI,SK-OV-3 ovarian,> 100 µM
same,TGI,SF-268 CNS,> 100 µM
same,TGI,NCI-H522 lung,> 100 µM
same,TGI,UACC-257 melanoma,> 100 µM
same,TGI,SK-MEL-28 melanoma,> 100 µM
same,TGI,HOP-62 NSCLC,> 100 µM
same,TGI,HT29 colon,> 100 µM
same,TGI,A498 renal,> 100 µM
same,TGI,T-47D breast,> 100 µM
same,TGI,M14 melanoma,> 100 µM
same,TGI,NCI-H23 lung,> 100 µM
same,TGI,UO-31 renal,> 100 µM
same,TGI,IGROV1 ovarian,> 100 µM
same,TGI,LOX IMVI melanoma,> 100 µM
same,TGI,786-0 renal,> 100 µM
same,TGI,OVCAR-4 ovarian,> 100 µM
same,TGI,SW-620 colon,> 100 µM
same,TGI,SF-539 CNS,> 100 µM
same,TGI,CAKI-1 renal,> 100 µM
same,TGI,SN12C renal,> 100 µM
same,TGI,U251 CNS,> 100 µM
same,TGI,HS 578T breast,> 100 µM
same,TGI,HCC-2998 colon,> 100 µM
same,TGI,ACHN renal,> 100 µM
same,TGI,HCT-15 colon,> 100 µM
same,TGI,SK-MEL-5 melanoma,> 100 µM
same,TGI,BT-549 breast,> 100 µM
same,TGI,MCF7 breast,> 100 µM
same,TGI,MOLT-4 leukemia,> 100 µM
same,TGI,HOP-92 NSCLC,> 100 µM
same,TGI,SR leukemia,> 100 µM
same,TGI,PC-3 prostate,> 100 µM
same,TGI,EKVX NSCLC,> 100 µM
same,TGI,MDA-MB-435,> 100 µM
same,TGI,COLO 205 colon,> 100 µM
same,TGI,NCI-H226 lung,> 100 µM
same,TGI,SNB-19 CNS,> 100 µM
same,TGI,CCRF-CEM leukemia,> 100 µM
same,TGI,TK-10 renal,> 100 µM
same,TGI,KM12 colon,> 100 µM
same,TGI,MDA-MB-231 breast,> 100 µM
same,TGI,A549 NSCLC,> 100 µM
same,TGI,K-562 leukemia,> 100 µM
same,TGI,SF-295 CNS,> 100 µM
same,TGI,SNB-75 CNS,> 100 µM
same,TGI,NCI-H460 lung,> 100 µM
same,TGI,OVCAR-5 ovarian,> 100 µM
same,TGI,OVCAR-8 ovarian,> 100 µM
same,TGI,HCT-116 colon,> 100 µM
same,TGI,MALME-3M melanoma,> 100 µM
same,TGI,RPMI-8226 leukemia,> 100 µM
same,TGI,RXF 393 renal,> 100 µM
same,TGI,DU-145 prostate,> 100 µM
same,TGI,MDA-N,> 100 µM
COC(=O)c1cc2c(cc1C(=O)OC)[C@@]1(C)CCCC(C)(C)C1CC2 (some centres undefined),TGI,HL-60(TB) leukemia,31.9 µM
same,TGI,UACC-62 melanoma,32.5 µM
same,TGI,OVCAR-3 ovarian,25 µM
same,TGI,NCI/ADR-RES ovarian,40.8 µM
same,TGI,SF-268 CNS,31.2 µM
same,TGI,NCI-H522 lung,41.5 µM
same,TGI,UACC-257 melanoma,62.8 µM
same,TGI,SK-MEL-2 melanoma,46.7 µM
same,TGI,SK-MEL-28 melanoma,> 100 µM
same,TGI,HOP-62 NSCLC,61.6 µM
same,TGI,HT29 colon,58.2 µM
same,TGI,A498 renal,32.4 µM
same,TGI,T-47D breast,9.58 µM
same,TGI,M14 melanoma,70.8 µM
same,TGI,NCI-H23 lung,> 100 µM
same,TGI,UO-31 renal,35 µM
same,TGI,IGROV1 ovarian,31.5 µM
same,TGI,LOX IMVI melanoma,36 µM
same,TGI,786-0 renal,36.7 µM
same,TGI,OVCAR-4 ovarian,> 100 µM
same,TGI,SW-620 colon,42.2 µM
same,TGI,SF-539 CNS,95.7 µM
same,TGI,SN12C renal,35.2 µM
same,TGI,U251 CNS,40.4 µM
same,TGI,HS 578T breast,44.9 µM
same,TGI,HCC-2998 colon,34.4 µM
same,TGI,ACHN renal,36.4 µM
same,TGI,HCT-15 colon,35.3 µM
same,TGI,SK-MEL-5 melanoma,35.4 µM
same,TGI,BT-549 breast,85.9 µM
same,TGI,MCF7 breast,32.7 µM
same,TGI,MOLT-4 leukemia,> 100 µM
same,TGI,HOP-92 NSCLC,26.2 µM
same,TGI,SR leukemia,57.7 µM
same,TGI,PC-3 prostate,51.1 µM
same,TGI,EKVX NSCLC,30.1 µM
same,TGI,MDA-MB-435,> 100 µM
same,TGI,NCI-H226 lung,33.8 µM
same,TGI,SNB-19 CNS,53.7 µM
same,TGI,CCRF-CEM leukemia,42.1 µM
same,TGI,TK-10 renal,39 µM
same,TGI,KM12 colon,30.6 µM
same,TGI,MDA-MB-231 breast,41.8 µM
same,TGI,A549 NSCLC,55.9 µM
same,TGI,K-562 leukemia,76.1 µM
same,TGI,SF-295 CNS,37 µM
same,TGI,SNB-75 CNS,82.1 µM
same,TGI,NCI-H460 lung,43.8 µM
same,TGI,OVCAR-5 ovarian,38.1 µM
same,TGI,OVCAR-8 ovarian,74 µM
same,TGI,HCT-116 colon,45.8 µM
same,TGI,MALME-3M melanoma,15.3 µM
same,TGI,RPMI-8226 leukemia,34.3 µM
same,TGI,RXF 393 renal,23.2 µM
same,TGI,DU-145 prostate,33.7 µM
same,TGI,MDA-N,78.8 µM

# From PubChem BioAssay (NCI)
